# Test results published in PMC6572618, “Anti-Trypanosomal and Antimalarial Properties of Tetralone Derivatives and Structurally Related Benzocycloalkanones” (Medicina, 2019).
# Where “and” joins values, the source holds several entries; their conditions need not be identical. Identical values can stand only once. Like-named read-outs stand apart in the source and are kept apart here.
# How the values were obtained:
# Assay type in all cases: cell-based
# [1] = system: 427 Trypanosoma brucei brucei trypomastigotes; assay: In vitro anti-trypanosomal assay (resazurin); settings: 48 h; for % Viability at 20 µM (SD) T.b. brucei / viability at 20 µM: 20 µM compound, % parasite viability relative to untreated control; for viability at 20 µM: read-out: % Viability at 20 µM (SD) T.b. brucei; for IC50: three-fold serial dilutions from 100 µM, read-out: IC50 (µM) T. b. brucei
# Experimental: The activity of the compounds against 427 Trypanosoma brucei brucei trypomastigotes was determined as previously described. Briefly, parasites were incubated in 96-well plates with 20 µM or three-fold serial dilutions (100 µM starting concentration) of test compounds in Iscove’s modified Dulbecco’s medium (IMDM) (Lonza, Basel, Switzerland) supplemented with 10% fetal calf serum, HMI-9 supplement, hypoxanthine, and penicillin/streptomycin at 37 °C in a 5% CO2 incubator. After 48 h, 20 µL of resazurin reagent (0.135 mg/mL resazurin in phosphate-buffered saline) was added to each well and the fluorescence (Ex560/Em590) read after 2–4 h in a Spectramax M3 plate reader (Molecular Devices, San Jose, CA, USA). The fluorescence readings were used to calculate % parasite viability relative to the readings obtained from the wells containing untreated control parasite cultures. The IC50 values were determined by plotting % viability vs. log(compound) and performing a non-linear regression using a GraphPad Prism (v. 5.02) (San Diego, CA, USA).
# (§1) Thirty-five tetralone derivatives (see Figure 2) and six related benzocycloalkanones (see Figure 3) were evaluated in vitro against T. b. brucei for antitrypanosomal activity through the resazurin assay protocol. The compounds were also evaluated against the chloroquine-sensitive strain (3D7) of P. falciparum for antimalarial activity using pLDH assay and against the HeLa cell line for cytotoxicity evaluation using the resazurin assay protocol.
# HeLa cells = assay: In vitro cytotoxicity assay (resazurin)
# Experimental: (§2) As previously described, HeLa cells (Cellonex, Johannesburg, South Africa) were seeded in 96-well plates at a density of 2 × 10^4 cells/well in Dulbecco’s modified Eagle’s medium (DMEM) (Lonza, Basel, Switzerland) supplemented with 10% fetal calf serum and antibiotics (penicillin/streptomycin/amphotericin B) and incubated overnight at 37 °C in a 5% CO2 incubator. Compounds were added to the cells at a final concentration of 20 µM, and incubation continued for 24 h. The cell viability in the wells was assessed by adding 20 µL of resazurin reagent (0.135 mg/mL resazurin in phosphate-buffered saline) and reading the fluorescence (Ex560/Em590) after an additional 2–4 h incubation. The fluorescence readings were converted to % cell viability relative to the average readings obtained from the untreated control wells.
# as §1
# [2] = system: chloroquine sensitive strain of P. falciparum (3D7); assay: In vitro antiplasmodial assay (parasite lactate dehydrogenase, pLDH); settings: for viability at 20 µM: Plasmodium falciparum, 3D7, 48 h, read-out: % Viability at 20 µM (SD) 3D7
# Experimental: An antimalarial evaluation was performed against the chloroquine sensitive strain of P. falciparum (3D7) using the parasite lactate dehydrogenase (pLDH) assay as previously reported. Parasites were seeded at 2% parasitemia and 1% hematocrit in 96 well plates and were incubated with 20 µM of the test compounds for 48 h in culture medium consisting of Rosell Park Memorial Institute (RPMI 1640; Lonza, Basel, Switzerland) containing 25 mM 4-(2-hydroxyethyl)-1-piperazineethanesulfonic acid (HEPES), supplemented with 0.5% (w/v) Albumax II, 22 mM glucose, 0.65 mM hypoxanthine, 0.05mg/mL gentamicin, and 1% (v/v) human erythrocytes, at 37 °C under an atmosphere of 5% CO2, 5% O2, and 90% N2. The parasite lactate dehydrogenase activity in the wells was determined using the colorimetric assay method of Makler et al.. The absorbance readings were converted to % parasite viability relative to the wells containing untreated parasites.
# as §1
# [3] = In vitro cytotoxicity assay (resazurin); settings: human, 20 µM compound, 24 h, % cell viability relative to untreated control, read-out: % Viability at 20 µM (SD) HeLa Cell
# Experimental: as §2, §1
# [4] = 20 µM compound, 24 h, % cell viability relative to untreated control
# [5] = 20 µM compound, 48 h, P. falciparum 3D7, % parasite viability relative to untreated parasites
SMILES,% Viability at 20 µM (SD) HeLa Cell (HeLa cells; [4]),% Viability at 20 µM (SD) 3D7 ([2]; 20 µM),% Viability at 20 µM (SD) T.b. brucei [1],other results
O=c1c(Cc2ccc(Cl)cc2)csc2ccccc12 [Compound 41],109 (7) %,107 (5) %,,% Viability at 20 µM (SD) T.b. brucei ([1]; 20 µM): 103 (0.3) %
Nc1ccc2c(c1)CC/C(=C\c1ccccc1)C2=O [Compound 11],86 (9) %,111 (1) %,,% Viability at 20 µM (SD) T.b. brucei ([1]; 20 µM): 95% and 97 (0.3) %
O=C1/C(=C/c2cccc(F)c2)CCc2ccc(O)cc21 [Compound 13],21 (1) %,13 (1) %,−0.9 (0.1) %,
O=C1/C(=C/c2ccccc2)CCc2c(O)cccc21 [Compound 8],35 (1) %,,0.5 (0.1) %,
COc1ccc2c(c1)C(=O)/C(=C/c1cccnc1Cl)CC2 [Compound 34],47 (1.7) %,113 (6) %,98 (2) %,
CN(C)c1ccc(/C=C2\CCc3ccc(O)cc3C2=O)cc1 [Compound 21],51 (4) %,142 (9) %,25 (2) %,
COc1ccc2c(c1)C(=O)/C(=C/C1CCCC1)CC2 [Compound 27],,,,"viability at 20 µM ([1]; Trypanosoma brucei): < 1%; IC50 ([1]; Trypanosoma brucei): 5.4 µM; viability at 24 h, 20 µM ([3]; HeLa cells): 85%; viability at 20 µM [2, 5]: 81%"
O=C1/C(=C/c2ccc(Cl)cc2)CSc2ccccc21 [Compound 39],8 (2) %,11 (0.9) %,,% Viability at 20 µM (SD) T.b. brucei ([1]; 20 µM): 0.3 (0.3) %
Cc1ccc(/C=C2\CCc3ccc(O)cc3C2=O)cc1 [Compound 20],,,,"viability at 20 µM ([1]; Trypanosoma brucei): -0.4%; IC50 ([1]; Trypanosoma brucei): 5.3 µM; viability at 24 h, 20 µM ([3]; HeLa cells): 69%; viability at 20 µM [2, 5]: 116%"
"N=C(N)c1ccc(OCCCCCOc2ccc(C(=N)N)cc2)cc1 [PE, pentamidine, reference compound]",,,,IC50 ([1]; Trypanosoma brucei): 0.0042 µM
O=C1/C(=C/c2ccccc2)CCc2cc(O)ccc21 [Compound 7],,,,"% Viability at 20 µM (SD) T.b. brucei ([1]; 20 µM): 0.6 (0.2) %; viability at 20 µM ([1]; Trypanosoma brucei): 0.66%; IC50 ([1]; Trypanosoma brucei): 0.4 µM; IC50 [1]: 0.46 µM; viability at 24 h, 20 µM ([3]; HeLa cells): 54%; viability at 20 µM [2, 5]: 89%"
COc1ccc2c(c1)C(=O)/C(=C/c1cccs1)CC2 [Compound 30],106 (2) %,107 (6) %,32 (9) %,
O=C1/C(=C/c2cccc(Cl)c2)CCc2ccc(O)cc21 [Compound 15],18 (0.4) %,−3 (6) %,0.6 (0.01) %,
COc1ccc(/C=C2\CCc3ccccc3C2=O)cc1 [Compound 4],,,,"viability at 20 µM ([1]; Trypanosoma brucei): 0.5%; IC50 ([1]; Trypanosoma brucei): 6.7 µM; viability at 24 h, 20 µM ([3]; HeLa cells): 76%; viability at 20 µM [2, 5]: 100%"
O=C1/C(=C/c2ccccc2)CCc2ccc(O)cc21 [Compound 9],9 (0.1) %,101 (4) %,−4 (0.3) %,
O=C1/C(=C/c2ccc(O)cc2)CCc2ccc(O)cc21 [Compound 19],44 (4) %,104 (12) %,1 (0.2) %,
N#Cc1cccc(/C=C2\CCc3ccc(N)cc3C2=O)c1 [Compound 2],77 (2) %,110 (1) %,95 (3) %,
O=C1/C(=C/c2ccc(Cl)cc2)COc2ccccc21 [Compound 38],,,,"% Viability at 20 µM (SD) T.b. brucei ([1]; 20 µM): 0.4 (0.2) %; IC50 ([1]; Trypanosoma brucei): 0.4 µM; viability at 24 h, 20 µM [3]: 75%; viability at 20 µM [2]: 98%"

SMILES,% Viability at 20 µM (SD) HeLa Cell (HeLa cells; [4]),% Viability at 20 µM (SD) 3D7 ([2]; 20 µM),% Viability at 20 µM (SD) T.b. brucei [1],other results
COc1ccc2c(c1)C(=O)/C(=C/C1CCCCC1)CC2 [Compound 26],,,,"viability at 20 µM ([1]; Trypanosoma brucei): < 1%; viability at 24 h, 20 µM ([3]; HeLa cells): 92%; viability at 20 µM [2, 5]: 119%"
O=C1/C(=C/c2cccc(Br)c2)CCc2ccc(O)cc21 [Compound 18],26 (3) %,99 (8) %,1.2 (0.31) %,
O=C1/C(=C/c2ccc(Cl)cc2)CCc2ccccc21 [Compound 24],100 (3) %,100 (8) %,26 (8) %,
COc1ccc2c(c1)C(=O)/C(=C/c1ccccn1)CC2 [Compound 33],20 (0.6) %,7 (8) %,−0.4 (0.2) %,
O=C1/C(=C/c2ccc(Cl)cc2)CCc2ccc(O)cc21 [Compound 14],27 (2) %,,0.1 (0.1) %,
O=C1/C(=C/c2cccc(Cl)c2)CCc2ccccc21 [Compound 17],41 (13) %,100 (9) %,0.2 (0.3) %,
O=C1/C(=C/c2cccnc2)CCc2ccccc21 [Compound 25],24 (0.4) %,29 (12) %,−0.7 (0.4) %,
COc1ccc2c(c1)C(=O)/C(=C/c1ccc[nH]1)CC2 [Compound 29],97 (5) %,115 (5) %,103 (1) %,
O=C1/C(=C/c2ccc(F)cc2)CCc2ccc(O)cc21 [Compound 12],,,,"viability at 20 µM ([1]; Trypanosoma brucei): -0.6%; IC50 ([1]; Trypanosoma brucei): 0.6 µM; IC50 [1]: 0.68 µM; viability at 24 h, 20 µM ([3]; HeLa cells): 29%"
O=c1c(Cc2ccc(Cl)cc2)coc2ccccc12 [Compound 40],103 (3) %,90 (6) %,,% Viability at 20 µM (SD) T.b. brucei ([1]; 20 µM): 94 (7) %
COc1ccc2c(c1)C(=O)/C(=C/c1ccco1)CC2 [Compound 28],97 (9) %,100 (3) %,31 (5) %,
COc1ccc2c(c1)C(=O)/C(=C/c1cccnc1)CC2 [Compound 31],17 (4) %,85 (12) %,,
COc1ccc(/C=C2\CCc3ccc(O)cc3C2=O)cc1 [Compound 23],25 (2) %,88 (10) %,0.2 (0.1) %,
O=C1/C(=C/c2ccc(Cl)c(Cl)c2)CCc2ccc(O)cc21 [Compound 22],5 (0.9) %,81 (1) %,0.9 (0.2) %,
O=C1/C(=C/c2ccc(F)cc2)CCc2ccccc21 [Compound 5],100 (2) %,107 (5) %,,
O=C1/C(=C/c2ccccc2)CCc2ccccc21 [Compound 3],,,43 (3) %,"% Viability at 20 µM (SD) HeLa Cell (HeLa cells; 20 µM): 116 (5) %; % Viability at 20 µM (SD) 3D7 [2, 5]: 103 (2) %"
O=C1/C(=C/c2ccc(Cl)cc2)Cc2ccccc21 [Compound 36],74 (10) %,93 (3) %,,% Viability at 20 µM (SD) T.b. brucei ([1]; 20 µM): 99 (0.1) %
O=C1/C(=C/c2ccc(Cl)cc2)CCCc2ccccc21 [Compound 37],53 (10) %,113 (0.6) %,,% Viability at 20 µM (SD) T.b. brucei ([1]; 20 µM): 0.3 (0.3) %
